According to patent publication US7723332B2, “Aryl sulfonamides useful for modulation of the progesterone receptor” (Wyeth LLC, priority 2007, dated 2010):

test system: alkaline phosphatase activity in T47D cells; experiment: Effects of progestins and antiprogestins on alkaline phosphatase activity in T47D cells; format: cell-based; conditions: Homo sapiens, T47D; reference progestins, agonist mode; typical values
Method: Effects of Progestins and Antiprogestins on Alkaline Phosphatase Activity in T47D Cells
This example was performed to identify progestins or antiprogestins by determining a compound's effect on alkaline phosphatase activity in T47D cells.
Culture medium: DMEM:F12 (1:1) (GIBCO, BRL) supplemented with 5% (v/v) charcoal stripped fetal bovine serum (not heat-inactivated), 100 U/mL penicillin, 100 μg/mL streptomycin, and 2 mM the GlutaMax™ reagent (GIBCO, BRL).
Alkaline phosphatase assay buffer: • I. 0.1M Tris-HCl, pH 9.8, containing 0.2% the Triton® X-100 reagent • II. 0.1 M Tris-HCl, pH 9.8, containing 4 mM p-nitrophenyl phosphate (Sigma).
Frozen T47D cells were thawed in a 37° C. water bath and diluted to 280,000 cells/mL in culture medium. To each well in a 96-well plate (Falcon, Becton Dickinson Labware), 180 μL of diluted cell suspension was added. Twenty μL of reference or test compounds diluted in the culture medium was then added to each well. When testing for progestin antagonist activity, reference antiprogestins or test compounds were added in the presence of 1 nM progesterone. The cells were incubated at 37° C. in a 5% CO2/humidified atmosphere for 24 hours. NOTE: For high throughput screening, one concentration of each compound was tested at 0.3 μg/mL. Based on an average molecular weight of 300 g/mol for the compounds in the library, the concentration was approximately 1 μM. Subsequently, active compounds were tested in dose response assays to determine EC50 and IC50.
At the end of treatment, the medium was removed from the plate. Fifty μL of assay buffer I was added to each well. The plates were shaken in a titer plate shaker for 15 minutes. 150 μL of assay buffer II was then added to each well. Optical density measurements were taken at 5 minute intervals for 30 minutes at a test wavelength of 405 nm.
For reference and test compounds, a dose response curve was generated for dose (X-axis) vs. the rate of enzyme reaction (slope) (Y-axis). Square root-transformed data was used for analysis of variance and nonlinear dose response curve fitting for both agonist and antagonist modes. Huber weighting was used to down-weight the effects of outliners. EC50 or IC50 values were calculated from the retransformed values. JMP software (SAS Institute, Inc.) was used for both one-way analysis of variance and non-4 linear dose response analysis in both single dose and dose response studies.
Progesterone and trimegestone are reference progestins known in the art and typically show an EC50 of about 0.1 nM to about 2.0 nM.

EC50 [nM] | Compound
0.1 to 2 | CC(=O)[C@H]1CC[C@H]2[C@@H]3CCC4=CC(=O)CC[C@]4(C)[C@H]3CC[C@]12C [Progesterone]

same assay, conditions: Homo sapiens; T47D alkaline phosphatase assay; antagonist mode in the presence of 1 nM progesterone; 24 hours

IC50 [nM] | Compound
58.9 | Cn1c(C#N)ccc1-c1ccc(S(=O)(=O)NC2CCCCC2)cc1 [Example 15, 4-(5-cyano-1-methyl-1H-pyrrol-2-yl)-N-cyclohexylbenzenesulfonamide]
26.5 | CCCNS(=O)(=O)c1ccc(-c2ccc(C#N)n2C)c(F)c1 [Example 36, 4-(5-cyano-1-methyl-1H-pyrrol-2-yl)-3-fluoro-N-propylbenzenesulfonamide]
62.2 | CCN(CC)S(=O)(=O)c1ccc(-c2ccc(C#N)n2C)cc1F [Example 41, 4-(5-cyano-1-methyl-1H-pyrrol-2-yl)-N,N-diethyl-2-fluorobenzenesulfonamide]
91 | Cn1c(C#N)ccc1-c1ccc(S(N)(=O)=O)cc1F [Example 30, 4-(5-cyano-1-methyl-1H-pyrrol-2-yl)-3-fluorobenzenesulfonamide]
146 | Cn1c(C#N)ccc1-c1ccc(S(=O)(=O)N2CCCC2)cc1 [Example 10, 1-methyl-5-[4-(pyrrolidin-1-ylsulfonyl)phenyl]-1H-pyrrole-2-carbonitrile]
132 | Cn1c(C#N)ccc1-c1ccc(S(=O)(=O)N2CCCCC2)cc1 [Example 11, 1-methyl-5-[4-(piperidin-1-ylsulfonyl)phenyl]-1H-pyrrole-2-carbonitrile]
77.1 | CC(C)NS(=O)(=O)c1ccc(-c2ccc(C#N)n2C)cc1C(F)(F)F [Example 23, 4-(5-cyano-1-methyl-1H-pyrrol-2-yl)-N-isopropyl-2-(trifluoromethyl)benzenesulfonamide]
9.7 | Cn1c(C#N)ccc1-c1ccc(S(=O)(=O)NC2CC2)cc1F [Example 38, 4-(5-cyano-1-methyl-1H-pyrrol-2-yl)-N-cyclopropyl-3-fluorobenzenesulfonamide]
48.4 | CCN(CC)S(=O)(=O)c1ccc(-c2ccc(C#N)n2C)cc1 [Example 8, 4-(5-cyano-1-methyl-1H-pyrrol-2-yl)-N,N-diethylbenzenesulfonamide]
99.5 | Cn1c(C#N)ccc1-c1ccc(S(N)(=O)=O)cc1 [Example 63, 4-(5-cyano-1-methyl-1H-pyrrol-2-yl)benzenesulfonamide]

Second part, the compound before the results:

Compound | IC50 [nM]
CNS(=O)(=O)c1cc(F)c(-c2ccc(C#N)n2C)cc1F [Example 59, 4-(5-cyano-1-methyl-1H-pyrrol-2-yl)-2,5-difluoro-N-methylbenzenesulfonamide] | 36.1
CCCNS(=O)(=O)c1ccc(-c2ccc(C#N)n2C)cc1C(F)(F)F [Example 25, 4-(5-cyano-1-methyl-1H-pyrrol-2-yl)-N-propyl-2-(trifluoromethyl)benzenesulfonamide] | 17.3
CCN(CC)S(=O)(=O)c1ccc(-c2ccc(C#N)n2C)cc1OC(F)(F)F [Example 50, 4-(5-cyano-1-methyl-1H-pyrrol-2-yl)-N,N-diethyl-2-(trifluoromethoxy)benzenesulfonamide] | 101
Cn1c(C#N)ccc1-c1ccc(S(=O)(=O)NC2CC2)c(OC(F)(F)F)c1 [Example 54, 4-(5-cyano-1-methyl-1H-pyrrol-2-yl)-N-cyclopropyl-2-(trifluoromethoxy)benzenesulfonamide] | 71.7
Cn1c(C#N)ccc1-c1ccc(S(=O)(=O)N2CCCC2)c(C(F)(F)F)c1 [Example 26, 1-methyl-5-[4-(pyrrolidin-1-ylsulfonyl)-3-(trifluoromethyl)phenyl]-1H-pyrrole-2-carbonitrile] | 115
CCN(CC)S(=O)(=O)c1ccc(-c2ccc(C#N)n2C)cc1C(F)(F)F [Example 22, 4-(5-cyano-1-methyl-1H-pyrrol-2-yl)-N,N-diethyl-2-(trifluoromethyl)benzenesulfonamide] | 80.4

same assay, conditions: T47D alkaline phosphatase assay; antagonist mode in the presence of 1 nM progesterone; 24 hours

Compound | Active Dose [nM]
Cn1c(C#N)ccc1-c1ccc(S(=O)(=O)NC2CCC2)c(OC(F)(F)F)c1 [Example 56, 4-(5-cyano-1-methyl-1H-pyrrol-2-yl)-N-cyclobutyl-2-(trifluoromethoxy)benzenesulfonamide] | 30
